The text below walks through data of patent publication US20250388575A1, “HETEROBIFUNCTIONAL COMPOUNDS AND METHODS OF TREATING DISEASE” (Halda Therapeutics OpCo, Inc., priority 2022, published 2025).

The test system of assay [1] is VCaP cells. Description: Cellular growth inhibition assay for VCaP cells, CellTiter-Glo. The following applies: VCaP cells, 72 hours, CellTiter-Glo, read-out: GI50. Type of assay: cell-based, human. The protocol: VCaP cells were purchased from American Type Cell Culture (ATCC Cat #CRL2876) and then seeded on poly-D-lysine coated, black clear-bottom 384-well plates at 5000/well in 25 μL Dulbecco's Modified Eagle Medium (DMEM) supplemented with 10% w/w Fetal bovine serum (FBS) and 1% w/w Pen-Strep. Pen-Strep is a commercially available mixture of penicillin G and streptomycin, which is used in mammalian cell culture media to prevent bacterial contamination. Dulbecco's Modified Eagle Medium (DMEM) supplemented with 10% w/w fetal bovine serum (FBS) and 1% w/w Pen-Strep is herein referred to as Treatment Medium. Following seeding of cells in the plates, the plates were spun at 300×g for 30 seconds, then equilibrated to room temperature for 30 minutes, and then deposited in a humidified tissue culture incubator maintained at 37° C. with 5% CO2.
(§1) At 24 hours after seeding of the cells, dilutions of test compound were prepared in DMSO and dissolved in Treatment Medium, to achieve a final DMSO concentration of 0.5% w/w, thereby providing the Test Compound Solution. A 25 μL aliquot of the Test Compound Solution was added to cells in the well plates. An equal volume of a solution containing DMSO and Treatment Medium was used as a negative control. Following treatment of cells with Test Compound Solution or said equal volume of a solution containing DMSO and Treatment Medium, the plates were spun at 300×g for 30 seconds, and then left in an incubator for 72 hours.
(§2) At the end of the treatment duration, cell viability was quantified with CellTiter-Glo 2.0 reagent (Promega Cat #G9243). For this purpose, plates were equilibrated to room temperature for 30 minutes, and then 25 μL of CellTiter-Glo 2.0 reagent was added to cells in the plate wells. Plates were then agitated on a shaker for two minutes at 500 rpm and subsequently incubated at room temperature for 10 minutes. Following incubation, the plates were spun at 3000×g for 30 seconds, then sealed with an optical adhesive cover, and luminescence readings were measured with an EnVision Plate Reader.
(§3) Data was normalized using zero luminescence for baseline. A four-parameter non-linear regression curve fit was applied to dose-response data in GraphPad Prism data analysis software to determine the half-maximal growth inhibitory concentration (GI50) for each test compound.

The subject of assay [2] is T-Rex 293 cell line SC3 cells having increased expression of androgen receptor protein. Kind of assay: Cellular growth inhibition, T-Rex 293 SC3 cells with increased androgen receptor expression (doxycycline), CellTiter-Glo. In kind it is cell-based. To be noted: T-Rex 293 SC3 cells with increased androgen receptor expression (exposed to 10 ng/mL doxycycline), 72 hours, CellTiter-Glo; read-out: GI50. The procedure:
(§4) The following types of cells were prepared for this experiment: (i) a T-Rex 293 cell line having increased expression of androgen receptor protein due to exposure to doxycycline and (ii) a T-Rex 293 cell line lacking increased expression of androgen receptor protein. Ability of the test compounds to inhibit proliferation of the foregoing cell types was evaluated according to the procedures set forth below.
(§5) The doxycycline-inducible androgen receptor protein expressing cell line was established using the following protocol: T-Rex 293 cells were purchased from Invitrogen (Cat #R71007) and transfected using Lipofectamine 2000 with the wild-type androgen receptor protein sequence cloned into the pcDNA4/TO vector. Transfected cells were selected using 400 μg/mL Zeocin (Invitrogen Cat #R25001). Following selection, single clones were raised and maintained in Dulbecco's Modified Eagle Medium (DMEM) supplemented with 10% w/w Tetracycline-free fetal bovine serum (FBS) and 250 μg/mL Zeocin. Clones were analyzed for expression of androgen receptor protein in the presence and absence of 10 ng/ml doxycycline (Sigma Cat #D9891), and a single doxycycline-inducible clone (hereinafter “SC3”) was selected for use in downstream assays.
(§6) The SC3 cells were seeded on poly-D-lysine coated, black clear-bottom 384-well plates at 2500/well, in 25 μL Phenol Red Free Dulbecco's Modified Eagle Medium (DMEM) supplemented with 10% w/w charcoal-dextran treated fetal bovine serum (FBS) and 1% w/w pen-strep, with or without 10 ng/mL doxycycline. Pen-Strep is a commercially available mixture of penicillin G and streptomycin, which is used in mammalian cell culture media to prevent bacterial contamination. Phenol Red Free Dulbecco's Modified Eagle Medium (DMEM) supplemented with 10% w/w charcoal-dextran treated fetal bovine serum (FBS) and 1% w/w pen-strep, with or without 10 ng/mL doxycycline is herein referred to as Treatment Medium. Following seeding of cells in the plates, the plates were spun at 300×g for 30 seconds, then equilibrated to room temperature for 30 minutes, and then deposited in a humidified tissue culture incubator maintained at 37° C. with 5% CO2.
as §1, §2, §3
(In ATP-based viability assays light output follows the ATP content of the culture.)

Assay [3] relates to T-Rex 293 cell line SC3 cells lacking increased expression of androgen receptor protein. Description: Cellular growth inhibition, T-Rex 293 SC3 cells lacking increased androgen receptor expression (no doxycycline), CellTiter-Glo. Type of assay: cell-based. To be noted: T-Rex 293 SC3 cells lacking increased androgen receptor expression (not exposed to doxycycline), 72 hours, CellTiter-Glo; read-out: GI50. The procedure:
as §4, §5, §6, §1, §2, §3

Read-outs that look alike come from different tables or passages of the source.

By GI50 is commonly meant the concentration that inhibits growth by half. Consider `CCS(=O)(=O)c1ccc(Oc2ccc(CCC3CCN(c4ccc(C(=O)NC5CCC(Oc6ccc(C#N)c(Cl)c6)CC5)nn4)CC3)cc2F)c(-c2cn(C)c(=O)c3[nH]ccc23)c1` (stereo not drawn) [I-45, N-[4-(3-chloro-4-cyano-phenoxy)cyclohexyl]-6-[4-[2-[4-[4-ethylsulfonyl-2-(6-methyl-7-oxo-1H-pyrrolo[2,3-c]pyridin-4-yl)phenoxy]-3-fluoro-phenyl]ethyl]-1-piperidyl]pyridazine-3-carboxamide], for which the GI50 in assay [1] (Homo sapiens), in assay [2] and in assay [3] was under 0.5 µM each time.
Take `CCS(=O)(=O)c1ccc(Oc2cccc(CCCN3CCN(c4ccc(C(=O)N[C@H]5CC[C@H](Oc6ccc(C#N)c(Cl)c6)CC5)nn4)CC3)c2F)c(-c2cn(C)c(=O)c3[nH]ccc23)c1` [I-62]: the 50% growth inhibitory concentration (GI50) in assay [1], in assay [2] and in assay [3] was under 0.5 µM throughout.
On to `CCS(=O)(=O)c1ccc(Oc2ccc(CCN3CC4(C3)CN(c3ccc(C(=O)N[C@H]5CC[C@H](Oc6ccc(C#N)c(Cl)c6)CC5)nn3)C4)cc2)c(-c2cn(C)c(=O)c3[nH]ccc23)c1` [I-63], for which the GI50 in assay [1], in assay [2] and in assay [3] was under 0.5 µM each time.
Regarding `CCS(=O)(=O)c1ccc(Oc2ccc(CCCCC3CCN(c4ccc(C(=O)N[C@H]5CC[C@H](Oc6ccc(C#N)c(Cl)c6)CC5)nn4)CC3)cc2)c(-c2cn(C)c(=O)c3[nH]ccc23)c1` [I-64], the 50% growth inhibitory concentration (GI50) was under 0.5 µM in assay [1], under 0.5 µM in assay [2] and 0.5 to 1.5 µM in assay [3].
For `CCS(=O)(=O)c1ccc(Oc2cccc(CCCC3CCN(c4ncc(C(=O)N[C@H]5CC[C@H](Oc6ccc(C#N)c(Cl)c6)CC5)cn4)CC3)c2F)c(-c2cn(C)c(=O)c3[nH]ccc23)c1` [I-65], the 50% growth inhibitory concentration (GI50) is under 0.5 µM in assay [1], under 0.5 µM in assay [2] and over 3 µM in assay [3].
Turning to `CCS(=O)(=O)c1ccc(Oc2ccc(CCCC3CCN(c4ccc(C(=O)N[C@H]5CC[C@H](Oc6ccc(C#N)c(Cl)c6)CC5)nn4)CC3)c(F)c2)c(-c2cn(C)c(=O)c3[nH]ccc23)c1` [I-83], the GI50 in assay [1] (Homo sapiens), in assay [2] and in assay [3] was under 0.5 µM throughout.
In the case of `Cn1cc(-c2cc(S(=O)(=O)CCCN3CCN(c4ccc(C(=O)N[C@H]5CC[C@H](Oc6ccc(C#N)c(Cl)c6)CC5)nn4)CC3)ccc2Oc2ccc(F)cc2F)c2cc[nH]c2c1=O` [I-93], the GI50 was under 0.5 µM in assay [1], under 0.5 µM in assay [2] and over 3 µM in assay [3].
With `Cn1cc(-c2cc(C(C)(C)O)ccc2Oc2ccc(C3CC4(CCN(c5ccc(C(=O)N[C@H]6CC[C@H](Oc7ccc(C#N)c(Cl)c7)CC6)nn5)CC4)C3)cc2)c2cc[nH]c2c1=O` [I-117], the GI50 in assay [1], in assay [2] and in assay [3] was under 0.5 µM each time.
`Cn1cc(-c2cc(C(C)(C)O)ccc2Oc2ccc(CC3CC4(C3)CN(c3ccc(C(=O)N[C@H]5CC[C@H](Oc6ccc(C#N)c(Cl)c6)CC5)nn3)C4)cc2)c2cc[nH]c2c1=O` [I-118]: the GI50 in assay [1] (Homo sapiens), in assay [2] and in assay [3] was under 0.5 µM each time.
In the case of `Cn1cc(-c2cc(C(C)(C)O)ccc2Oc2ccc(CN3CC4(CCN(c5ccc(C(=O)N[C@H]6CC[C@H](Oc7ccc(C#N)c(Cl)c7)CC6)nn5)CC4)C3)cc2)c2cc[nH]c2c1=O` [I-120], the GI50 in assay [1] (Homo sapiens), in assay [2] and in assay [3] was under 0.5 µM throughout.
As for `Cn1cc(-c2cc(C(C)(C)O)ccc2Oc2ccc(CCN3CC4(C3)CN(c3ccc(C(=O)N[C@H]5CC[C@H](Oc6ccc(C#N)c(Cl)c6)CC5)nn3)C4)cc2)c2cc[nH]c2c1=O` [I-121], the GI50 in assay [1] was under 0.5 µM; in assay [2], under 0.5 µM; in assay [3], 0.5 to 1.5 µM.
In the case of `Cn1cc(-c2cc(C(C)(C)O)ccc2Oc2cccc(N3CC(N(C4CC4)C4CCN(c5ccc(C(=O)N[C@H]6CC[C@H](Oc7ccc(C#N)c(Cl)c7)CC6)nn5)CC4)C3)c2F)c2cc[nH]c2c1=O` [I-145], the GI50 in assay [1] is under 0.5 µM; in assay [2], under 0.5 µM; in assay [3], over 3 µM.
Turning to `Cn1cc(-c2cc(C(C)(C)O)ccc2Cc2ccc(CCC3CCN(c4ccc(C(=O)NC5CCC(Oc6ccc(C#N)c(Cl)c6)CC5)nn4)CC3)cc2)c2cc[nH]c2c1=O` (stereo not drawn) [I-205, N-[4-(3-chloro-4-cyano-phenoxy)cyclohexyl]-6-[4-[2-[4-[[4-(1-hydroxy-1-methyl-ethyl)-2-(6-methyl-7-oxo-1H-pyrrolo[2,3-c]pyridin-4-yl)phenyl]methyl]phenyl]ethyl]-1-piperidyl]pyridazine-3-carboxamide], the results for the GI50 in assay [1] (Homo sapiens), in assay [2] and in assay [3] were 0.5 to 1.5 µM, under 0.5 µM and over 3 µM, respectively.
In the case of `Cn1cc(-c2cc(NC(=O)CCC3CCN(c4ccc(C(=O)NC5CCC(Oc6ccc(C#N)c(Cl)c6)CC5)nn4)CC3)ccc2Oc2ccc(F)cc2F)c2cc[nH]c2c1=O` (stereo not drawn) [I-212, N-[4-(3-chloro-4-cyano-phenoxy)cyclohexyl]-6-[4-[3-[4-(2,4-difluorophenoxy)-3-(6-methyl-7-oxo-1H-pyrrolo[2,3-c]pyridin-4-yl)anilino]-3-oxo-propyl]-1-piperidyl]pyridazine-3-carboxamide], the concentration for 50% growth inhibition (GI50) was over 3 µM in assay [1] (Homo sapiens), under 0.5 µM in assay [2] and over 3 µM in assay [3].
In the case of `Cn1cc(-c2cc(NC(=O)CCCCCOC3CCN(c4ccc(C(=O)N[C@H]5CC[C@H](Oc6ccc(C#N)c(Cl)c6)CC5)nn4)CC3)ccc2Oc2ccc(F)cc2F)c2cc[nH]c2c1=O` [I-215], the 50% growth inhibitory concentration (GI50) in assay [1] is over 3 µM; in assay [2], under 0.5 µM; in assay [3] it was 0.5 to 1.5 µM.
As to `CCS(=O)(=O)c1ccc(Oc2ccc(CCC3CCN(c4ccc(C(=O)N[C@H]5CC[C@H](Oc6ccc(C#N)c(Cl)c6)CC5)nn4)CC3)cn2)c(-c2cn(C)c(=O)c3[nH]ccc23)c1` [I-220], the 50% growth inhibitory concentration (GI50) in assay [1] was over 3 µM; in assay [2] it was under 0.5 µM; in assay [3], over 3 µM.
Regarding `Cn1cc(-c2cc(C3(O)COC3)ccc2Oc2ccc(OCC3CCN(c4ccc(C(=O)NC5CCC(Oc6ccc(C#N)c(Cl)c6)CC5)nn4)CC3)cc2)c2cc[nH]c2c1=O` (stereo not drawn) [I-236, N-[4-(3-chloro-4-cyano-phenoxy)cyclohexyl]-6-[4-[[4-[4-(3-hydroxyoxetan-3-yl)-2-(6-methyl-7-oxo-1H-pyrrolo[2,3-c]pyridin-4-yl)phenoxy]phenoxy]methyl]-1-piperidyl]pyridazine-3-carboxamide], the values for the GI50 in assay [1], in assay [2] and in assay [3] were under 0.5 µM, under 0.5 µM and over 3 µM, respectively.
Take `Cn1cc(-c2cc(CS(C)(=O)=O)ccc2Oc2ccc(CCC3CCN(c4ccc(C(=O)NC5CCC(Oc6ccc(C#N)c(Cl)c6)CC5)nn4)CC3)cc2)c2cc[nH]c2c1=O` (stereo not drawn) [I-237, N-[4-(3-chloro-4-cyano-phenoxy)cyclohexyl]-6-[4-[2-[4-[2-(6-methyl-7-oxo-1H-pyrrolo[2,3-c]pyridin-4-yl)-4-(methylsulfonylmethyl)phenoxy]phenyl]ethyl]-1-piperidyl]pyridazine-3-carboxamide]: the concentration for 50% growth inhibition (GI50) in assay [1] (Homo sapiens), in assay [2] and in assay [3] was under 0.5 µM throughout.
